Data set [1] in a line: Human blood plasma stability assay. Format: in vitro ADME. As to the method:
In this assay, the half-life (T1/2) of a compound in blood plasma is measured in vitro, whereby its susceptibility to degradation by proteases, peptidases and general plasma contents is quantified.
Compounds of interest were dissolved in human blood plasma (270 μl; 3H Biomedical, Sweden, cat no 1300-1-P50) to a concentration of 0.25 mM (30 μL of 2.5 mM) and incubated at 37° C. Aliquots (30 μl) were removed at various time intervals (0, 5, 10, 20, 40, 80, 160, 320, 960, 1280, 2550, 4560 and 7240 min) and quenched with 60 μL trichloroacetic acid (aq., 5%). The aliquots were vortexed, and incubated for at least 15 min, at 4° C. prior to centrifugation at 18,000 g for 2 min and the supernatant was analyzed by RP-HPLC to quantify the remaining compound (absorbance at 218 nm).

In a further data set the target is T1, PDZ1-2 tandem of PSD-95 (Homo sapiens, UniProt P78352).
T1 construct: PDZ1-2 (residues 61-249) tandem; made in house; host or cells: E. coli BL21-DE3 pLysS
Briefly: FP heterologous competition binding assay. Conditions: mean ± SEM. The text has this:
(§1) Determined IC50 values may be converted to Ki values.^5 Suitable fluorophores include either 5-FAM or Cy5, which may be coupled to a tripeptide (KSG or CSG) linker attached to the N-terminus of the undecapeptide, to give 5-FAM-NR2B, Cy5-NR2B, 5-FAM-CRIPT and Cy5-CRIPT. The 5-FAM fluorophore may be attached to the undecapeptides by coupling with HATU. The Cy5 fluorophore may be conjugated to the undecapeptides by coupling Cy5-maleimide to the cysteine side chain of the tripeptide sequence CSG attached to the N-terminus of the peptide, as detailed in the Methodology section.
(§2) To measure the affinities between non-fluorescent peptides and PDZ domains, heterologous competition bindings assay were performed. This was done by adding increasing concentrations of peptide to a fixed concentration of Cy5-NR2B, 5-FAM-NR2B, Cy5-CRIPT or 5-FAM-CRIPT (50 nM) and PDZ (20 μM for PDZ1, 3 μM for PDZ2 and 1-2 and 5 μM for PDZ3) in the same TBS buffer and conditions as described above. FP values were then fitted to the general equation: Y=Bottom+(Top−Bottom)/[1[…](10̂^X-logIC50)], where X is the logarithmic value of peptide concentration. Hereby the IC50 value was obtained, which is used to calculate the theoretical competitive inhibition constant, Ki.^5
(§3) A convenient and reliable way to examine interactions between peptide analogues and PDZ domains is by using a fluorescence polarization (FP) assay. The three PDZ domains, PDZ1-3, of PSD-95 were expressed individually as set out above, while PDZ1-2 was also expressed as a tandem construct. […] IC50 values were then converted to Ki values.^5

The target in the next data set is T2, PDZ2 of PSD-95 (Homo sapiens, UniProt P78352).
T2 construct: PDZ2 (residues 155-249); made in house; host or cells: E. coli BL21-DE3 pLysS
The experiment in a line: FP heterologous competition binding assay. The conditions noted are these: FP competition; mean ± SEM; NA = no activity/affinity.
Description: as §1, §2, §3

In the next data set the target is T3, PDZ3 of PSD-95 (Homo sapiens, UniProt P78352).
T3 construct: PDZ3 (residues 309-401); made in house; host or cells: E. coli BL21-DE3 pLysS
Briefly: FP heterologous competition binding assay. The conditions noted are these: FP competition; mean ± SEM; NA = no activity/affinity.
Description: as §1, §2, §3

In a further data set the target is T4, PDZ1 of PSD-95 (Homo sapiens, UniProt P78352).
T4 construct: PSD-95 PDZ1 (residues 61-151); made in house; host or cells: E. coli BL21-DE3 pLysS
The experiment in a line: FP heterologous competition binding assay. Conditions: for Ki: FP competition, mean ± SEM, NA = no activity/affinity.
Description: as §1, §2, §3

The mark [2] stands for this setting: human, plasma, Blood plasma half life (T1/2).

Twelve molecules from US20160176924A1, “MODIFIED PEPTIDES AS POTENT INHIBITORS OF THE PSD-95/NMDA RECEPTOR INTERACTION” (priority 2008, published 2016) can be followed below.

Structures are written as SMILES. Peptide text beside a SMILES is read from it.

On to `CC[C@H](C)[C@H](NC(=O)CCOCCOCCOCCOCCOCCC(=O)N[C@H](C(=O)N[C@@H](C)C(=O)N[C@H](C(=O)N(C)[C@@H](C)C(=O)N[C@H](C(=O)O)C(C)C)[C@@H](C)O)[C@@H](C)CC)C(=O)N[C@@H](C)C(=O)N[C@H](C(=O)N(C)[C@@H](C)C(=O)N[C@H](C(=O)O)C(C)C)[C@@H](C)O` [(IATAMeV)2PEG4 (90), (IATAMeV)2PEG4], for which the “degradation in human blood plasma, in words” value (from here on “degradation”) in data set [1] was “no significant degradation could be detected over a time period of 6 days”. For the same molecule, the half-life (in general, the time needed for the level to fall by half in the phase considered) in data set [1] (setting [2]) is more than 133 h.

Consider `CC[C@H](C)[C@H](NC(=O)CCOCCOCCOCCOCCOCCC(=O)N[C@H](C(=O)N[C@@H](C)C(=O)N[C@H](C(=O)N[C@@H](C)C(=O)N[C@H](C(=O)O)C(C)C)[C@@H](C)O)[C@@H](C)CC)C(=O)N[C@@H](C)C(=O)N[C@H](C(=O)N[C@@H](C)C(=O)N[C@H](C(=O)O)C(C)C)[C@@H](C)O` [(IATAV)2PEG4 (88), (IATAV)2PEG4], for which the Ki (usually the equilibrium dissociation constant of an inhibitor or competing ligand from its target) was 1.1 ± 0.07 µM on PDZ1-2 tandem of PSD-95 and 25 ± 0.88 µM at PDZ2 of PSD-95. Further, the half-life at […] in data set [1] (setting [2]) is 2.05 h.

`CC[C@H](C)[C@H](NC(=O)CCOCCOCCOCCOCCOCCOCCOCCOCCOCCOCCOCCOCCOCCC(=O)N[C@H](C(=O)N[C@@H](C)C(=O)N[C@H](C(=O)N[C@@H](C)C(=O)N[C@H](C(=O)O)C(C)C)[C@@H](C)O)[C@@H](C)CC)C(=O)N[C@@H](C)C(=O)N[C@H](C(=O)N[C@@H](C)C(=O)N[C@H](C(=O)O)C(C)C)[C@@H](C)O` [(IATAV)2PEG12 (87), (IATAV)2PEG12]: the results for the Ki at PDZ1-2 tandem of PSD-95 and on PDZ2 of PSD-95 were 1 ± 0.06 µM and 13 ± 1.1 µM, respectively. This molecule returned a half-life at […] in data set [1] (setting [2]) of 3.05 h.

For `CC[C@H](C)[C@H](NC(=O)CCOCCOCCOCCOCCOCCOCCOCCC(=O)N[C@H](C(=O)N[C@@H](CCC(=O)O)C(=O)N[C@@H](CO)C(=O)N[C@@H](CC(=O)O)C(=O)N[C@H](C(=O)O)C(C)C)[C@@H](C)CC)C(=O)N[C@@H](CCC(=O)O)C(=O)N[C@@H](CO)C(=O)N[C@@H](CC(=O)O)C(=O)N[C@H](C(=O)O)C(C)C` [(IESDV)2PEG6 (77), (IESDV)2PEG6], the Ki on PDZ1-2 tandem of PSD-95 was approximately 0.1 µM. Besides, the “degradation” value in data set [1] is recorded as “no significant degradation could be detected over a time period of 6 days”. The same molecule yielded a half-life at […] in data set [1] (setting [2]) of more than 133 h.

As to `CC[C@H](C)[C@H](NC(=O)CCOCCOCCOCCOCCOCCOCCOCCOCCOCCC(=O)N[C@H](C(=O)N[C@@H](CCC(=O)O)C(=O)N[C@@H](CO)C(=O)N[C@@H](CC(=O)O)C(=O)N[C@H](C(=O)O)C(C)C)[C@@H](C)CC)C(=O)N[C@@H](CCC(=O)O)C(=O)N[C@@H](CO)C(=O)N[C@@H](CC(=O)O)C(=O)N[C@H](C(=O)O)C(C)C` [(IESDV)2PEG8 (76), (IESDV)2PEG8], the results for the Ki at PDZ1-2 tandem of PSD-95 and on PDZ2 of PSD-95 were approximately 0.1 µM and 2.6 ± 0.13 µM, respectively. The “degradation” value in data set [1] is reported as “no significant degradation could be detected over a time period of 6 days”. Besides, the half-life at […] in data set [1] (setting [2]) was more than 133 h.

With `CC(C)[C@H](NC(=O)[C@H](C)NC(=O)[C@@H](NC(=O)[C@H](C)N)[C@@H](C)O)C(=O)O` [ATAV (68), ATAV] (H-ATAV-OH; C-terminus assumed), the Ki on PDZ3 of PSD-95 is not below 400 µM.

As for `CC(C)[C@H](NC(=O)[C@H](CC(=O)O)NC(=O)[C@H](CO)NC(=O)[C@@H](N)CCC(N)=O)C(=O)O` [Compound 29] (H-QSDV-OH), the half-life at […] in data set [1] (setting [2]) lay in the range of 0.283 to 0.917 h.

For the molecule `CCCN[C@@H](CCC(=O)O)C(=O)N[C@H](C(=O)N[C@@H](C)C(=O)N[C@H](C(=O)O)C(C)C)[C@@H](C)O` [Compound 53, N-Propyl-ETAV], the Ki on PDZ1 of PSD-95 was determined as 7 ± 0.28 µM.

For `CC(C)[C@H](NC(=O)[C@H](C)NC(=O)[C@@H](NC(=O)[C@H](CCC(=O)O)NCC1CCCCC1)C(C)O)C(=O)O` (some centres unmarked) [Compound 55, N-Cyclohexylmethyl-ETAV], the “fold increase in affinity (more potent) compared to NR2B peptide (1), PDZ1” value at PDZ1 of PSD-95 is listed as “ca. 19 fold”. Further, the results for the Ki at PDZ1 of PSD-95 and on PDZ3 of PSD-95 were 1 ± 0.24 µM and 21 ± 0.64 µM, respectively.

Turning to `CC(C)[C@H](NC(=O)[C@H](C)NC(=O)[C@@H](NC(=O)[C@H](CCC(=O)O)NCCCc1ccccc1)C(C)O)C(=O)O` (some centres unmarked) [Compound 60, N-Phenylpropyl-ETAV], the Ki on PDZ1 of PSD-95 came to 2.1 ± 0.35 µM; on PDZ2 of PSD-95, 3.1 ± 0.31 µM.

`CC(C)[C@H](NC(=O)[C@H](C)NC(=O)[C@@H](NC(=O)[C@H](CCC(=O)O)NCCc1ccc(Cl)c(Cl)c1)C(C)O)C(=O)O` (some centres unmarked) [Compound 61]: the Ki on PDZ2 of PSD-95 stood at 1.1 ± 0.11 µM.

`CC(C)[C@H](NC(=O)[C@H](C)NC(=O)[C@@H](NC(=O)[C@H](CCC(=O)O)NCCc1ccc(F)c(F)c1)C(C)O)C(=O)O` (some centres unmarked) [Compound 62]: the values for the Ki on PDZ1 of PSD-95 and at PDZ2 of PSD-95 were approximately 1 µM and 1 ± 0.043 µM, respectively.
